According to patent US20240238211A1, “ISOQUINOLINE-STABILIZED LIPID NANOPARTICLE FORMULATIONS” (ModernaTX, Inc., priority 2021, published 2024):

Key:
[1] = test system: mRNA; assay: mRNA stabilization: main peak purity by RP-HPLC (Example 1); type: physicochemical; conditions: LNP mRNA 0.2 mg/mL in buffer, T0, 3-day, 7-day (berberine, palmatine); buffered mRNA, 5 days at 50° C. (coralyne, palmatine)
Excerpt: mRNA purity can be determined by reverse phase high-performance liquid chromatography (RP-HPLC) size based separation. This method can be used to assess mRNA integrity by a length-based gradient RP separation and UV detection of RNA at 260 nm. As used herein “main peak” or “main peak purity” refers to the RP-HPLC signal detected from mRNA that corresponds to the full size mRNA molecule loaded within a given LNP formulation. mRNA purity can also be assessed by fragmentation analysis. Fragmentation analysis (FA) is a method by which nucleic acid (e.g., mRNA) fragments can be analyzed by capillary electrophoresis. Fragmentation analysis involves sizing and quantifying nucleic acids (e.g., mRNA), for example by using an intercalating dye coupled with an LED light source. Such analysis may be completed, for example, with a Fragment Analyzer from Advanced Analytical Technologies, Inc. Berberine USP was combined with an LNP containing mRNA (0.2 mg/ml in buffer) in amounts corresponding to the concentrations reported in FIG. 2. Main peak purity was measured by RP-HPLC at T0, 3-day, and 7-day. See, FIG. 2. Palmatine USP was combined with an LNP containing mRNA (0.2 mg/mL in buffer) in amounts corresponding to the concentrations reported in FIG. 3. Main peak purity was measured by RP-HPLC at T0, 3-day, and 7-day. […] After storage for 5 days at 50° C., main peak purity was measured by RP-HPLC. […]

[2] = test system: mRNA; assay: mRNA LNP stability as a function of pH and temperature (main peak purity); type: physicochemical; conditions: 1 mM excipient, pH 5.5 to 7.4, 0.8 mg/mL, 1 week at 40° C. or 2 weeks at 25° C.
Procedure: The stability of mRNA LNP formulations was evaluated as a function of pH and temperature in the presence and absence of berberine and palmatine. 1 mM excipients were added in pH conditions 5.5 to 7.4 to evaluate pH impact on mRNA stabilization in mRNA LNPs. For pH between 5.5-6.5, 7 mM citrate and 8% sucrose buffer was used. For pH of 7.4, tris/sucrose buffer was used. The LNP formulations were incubated at 0.8 mg/mL for 1 week at 40° C. or 2 weeks at 25° C., and then main peak purity was measured. Incubation for 1 week at 40° C. or 2 weeks at 25° C. show similar trends. […] See, FIG. 7.

[3] = test system: mRNA; assay: mRNA LNP stability at pH 7.4 as a function of berberine concentration (main peak purity); type: physicochemical; conditions: 0-1.5 mM berberine, pH 7.4 tris/sucrose, ~0.2 mg/mL, 1 week at 40° C. or 2 weeks at 25° C.
Procedure: The stability of mRNA LNP formulations at pH of 7.4 was then further evaluated as a function of berberine concentration. A series of mRNA LNPs were formulated with various levels of berberine (0, 0.2, 0.4, 0.6, 0.8, 1.0, 1.25, 1.5 mM) and stressed in 7.4 pH tris/sucrose buffer at ˜0.2 mg/mL for either 1 week at 40° C. or 2 weeks at 25° C., and then main peak purity was measured. […] In this study, maximal effect occurs in the 1-1.25 mM berberine range. See, FIG. 8.

[4] = test system: mRNA; assay: HPLC purity of mRNA stressed at 40° C. for 3 weeks; type: physicochemical; conditions: ~1 mM berberine
Procedure: HPLC analyses were performed to evaluate the purity of mRNA stressed at elevated temperature (40° C.) for 3 weeks. In the absence of stabilizer, less than 5% of the mRNA (main peak 5.857 min) remained intact. By contrast, in the presence of ˜1 mM berberine, over 22% of the mRNA (main peak 5.857 min) remained intact. […] See, FIG. 5.

[5] = test system: mRNA LNPs; assay: Dynamic light scattering of mRNA LNPs after 40° C. stress; type: physicochemical; conditions: 1 mM berberine, 40° C. stress for 1 week
Excerpt: Particle size (e.g., particle diameter) can be determined by Dynamic Light Scattering (DLS). DLS measures a hydrodynamic diameter. Smaller particles diffuse more quickly, leading to faster fluctuations in the scattering intensity and shorter decay times for the autocorrelation function. Larger particles diffuse more slowly, leading to slower fluctuations in the scattering intensity and longer decay times in the autocorrelation function. Dynamic light scattering is sensitive to perturbation to the physical integrity of mRNA LNPs. mRNA LNPs were formulated with 1 mM berberine or without berberine and then exposed to 40° C. temperature stress for 1 week. As a control, mRNA LNPs were formulated without berberine. The size distribution of the mRNA LNPs was then analyzed by dynamic light scattering. […] See, FIG. 6.

[6] = test system: lipid nanoparticles encapsulating mRNA; assay: Permeation of palmatine chloride into lipid nanoparticles encapsulating mRNA; type: physicochemical; conditions: 2 mM palmatine, 1 to 14 days, 5, 15, 25 or 40° C., 20 mM Tris, 8% sucrose
Procedure: Formulations contain 0.20 mg/ml mRNA DP with 2 mM palmatine chloride. With reference to FIG. 11, studies were performed to determine the effect of time and temperature on diffusion (permeation) of palmatine chloride into lipid nanoparticles encapsulating mRNA. The samples were prepared in 20 mM Tris, 8% sucrose. The lipid nanoparticles encapsulating mRNA were incubated in 2 mM palmatine for 1 to 14 days. Free palmatine was separated from the lipid nanoparticles by gel filtration on 40 kD Zeba cartridges, whereas the concentration of lipid nanoparticle-permeated palmatine was determined by reverse phase chromatography using a Luna C18 column.

[7] = test system: mRNA; assay: Stability of mRNA LNPs with DTPA and palmatine chloride (main peak purity); type: physicochemical; conditions: 0.20 mg/ml mRNA LNP, 1 mM DTPA, palmatine chloride 0.5, 1 or 2 mM, up to 5 months
Procedure: With reference to FIG. 12, studies were performed to determine the stability of lipid nanoparticles encapsulating mRNA containing the chelator DTPA and varying concentrations of palmatine chloride. 0.20 mg/ml samples of lipid nanoparticles encapsulating mRNA and 1 mM DTPA were incubated with palmatine chloride (0 mM, 0.5 mM, 1 mM, or 2 mM). Measurements of main peak (mRNA) purity were taken at time points up to 5 months.

[8] = test system: mRNA; assay: Long-term stability of mRNA with 2 mM palmatine chloride (intact mRNA by chromatography); type: physicochemical; conditions: for degradation rate (% per month) / greater purity than unstabilized composition: 0.20 mg/ml mRNA + 2 mM palmatine chloride
Procedure: The degradation rate (% per month) of the stabilized composition was 1.8% as compared to […] for the unstabilized composition. […] The degradation rate (% per month) of the stabilized composition was 8.6% as compared to 38% for the unstabilized composition. […] With reference to FIGS. 10A and 10B, studies were performed to determine the long-term effect of palmatine chloride on thermal stability of mRNA. Aliquots of mRNA solution were mixed with 2 mM palmatine chloride and were incubated for the indicated periods of time at 5° C. (FIG. 10A) and 25° C. (FIG. 10B). The percentage of remaining intact mRNA was quantified using chromatography. The dashed line traces represent mRNA-only samples. The solid line traces represent mRNA samples containing palmatine chloride.

[9] = test system: mRNA; assay: Differential scanning microcalorimetry of mRNA with palmatine chloride; type: physicochemical; conditions: increasing palmatine chloride up to 500 μM, 20 mM Tris, 8% sucrose
Procedure: With reference to FIG. 9, differential scanning microcalorimetry thermograms were obtained of lipid nanoparticles encapsulating mRNA and containing increasing concentrations of palmatine chloride (left-most trace—free mRNA, right-most trace—500 μM palmatine). The experiments were performed in 20 mM Tris, 8% sucrose buffer.

[10] = test system: mRNA; assay: mRNA purity of three month, 25° C. stability samples of mRNA LNPs; type: physicochemical; conditions: mRNA LNPs containing palmatine at varying concentrations, 3 months at 25° C.
[11] = Immunogenicity of mRNA LNP stability samples in vivo (serum antibody titers); set-up: species or system BALB/c mice; conditions: three month, 25° C. stability samples of mRNA LNPs containing palmatine, mice
Procedure: Experiments were performed to (i) evaluate immunogenicity of mRNA LNPs containing palmatine or berberine at varying concentrations as compared to non-stabilized control mRNA LNPs. BALB/c mice (N=210) are injected with a mRNA LNP stabilized with varying concentrations of palmatine or berberine (e.g., 0, 0.5 mM, 0.75 mM, 1 mM, 2 mM, 5 mM, or 10 mM). Various dose levels (e.g., 2.5 ug/mg; 1.25 ug/mg; or 0.63 ug/mg) are injected into mice intramuscularly on day 1. On day 21, immunogenicity is assessed via serum antibody titers against protein encoded by the mRNA. The mice are given a booster injection on day 22, and then immunogenicity is again assessed on day 36. Three month, 25° C. stability samples from mRNA LNPs containing palmatine at varying concentrations, and non-stabilized mRNA LNPs (no palmatine) were tested in vivo as continued immunogenicity monitoring on stability. […] The drop in antibody titers is correlated to a significant drop in mRNA purity.

Structure (SMILES): COc1ccc2cc3[n+](cc2c1OC)CCc1cc2c(cc1-3)OCO2 [berberine]
- effect on mRNA (main peak purity by RP-HPLC) [1]: stabilizing effect
- stabilizing effect across pH range (main peak purity) [2]: strong stabilizing effects
- dependence of stabilizing effect on concentration [3]: concentration-dependent manner
- mRNA remaining intact (main peak) [4]: over 22%
- effect on hydrodynamic characteristics of the lipid nanoparticle (size distribution) [5]: no effect on the hydrodynamic characteristics of the lipid nanoparticle

Structure (SMILES): COc1cc2c(cc1OC)-c1cc3ccc(OC)c(OC)c3c[n+]1CC2 [palmatine]
- permeated concentration in lipid nanoparticles as a function of temperature [6]: increased permeated palmatine concentration
- rate of permeation into lipid nanoparticles as a function of temperature [6]: increased rate of permeation
- effect on mRNA (main peak purity by RP-HPLC) [1]: stabilizing effect
- mRNA stability (main peak purity) [7]: significantly improved
- degradation rate (% per month) ([8]; 5° C. over twelve months): 1.8 % per month
- greater purity than unstabilized composition ([8]; 5° C., after ten months): 20%
- degradation rate (% per month) ([8]; 25° C. over six months): 8.6 % per month
- greater purity than unstabilized composition ([8]; 25° C., after six months): 35%
- mRNA thermal stability in the presence of the compound ([8]; 2 mM palmatine chloride, 5° C. and 25° C.): significantly improved
- effect of binding on thermal stability of mRNA (DSC thermograms) [9]: increased thermal stability of mRNA
- stabilizing effect across pH range (main peak purity) [2]: strong stabilizing effects
- mRNA purity versus non-stabilized samples [10]: higher mRNA purity than the non-stabilized
- antibody titers versus −70° C. non-stabilized control [11]: more similar antibody titers to the −70 °C control arm
